Measured values: patent publication US20220411362A1, “DITERPENOID COMPOUNDS THAT ACT ON PROTEIN KINASE C (PKC)” (K-Gen, Inc., priority 2019, published 2022)

What was measured:
[1] = target: T1, C1b domain of human PKCα (Homo sapiens, UniProt P17252); test: biochemical; assay type: binding; settings: Ki PKCα, 3H-PDBu competition
T1 construct: Genes encoding C1b domains of human PKCα, δ, ε, θ, and PKD1 (PKCμ) were synthesized; made in house; host or cells: E. coli BL21(DE3)
Experimental: (§1) Compounds described in this disclosure were tested for binding affinity to C1b domain of PKC isoforms. Compound binding affinity to C1b domain of PKC isoforms was derived from competitive binding assay using radioactive tracer ^3H-PDBu and recombinant GST-C1b or full-length of human PKC proteins based on modified procedures from Methods in Molecular Biology, vol.
(§2) Genes encoding C1b domains of human PKCα, δ, ε, θ, and PKD1 (PKCμ) were synthesized and inserted into pGEX-2TK or pGEX-4T1 vectors for expression and production of GST-C1b proteins in E. coli BL21(DE3) via IPTG induction. The target proteins were purified by glutathione sepharose 4B and followed by ion exchange chromatography if needed to achieve purity >70%. Aliquots of the purified proteins were stored at −80 degree for binding assay (storage buffer: 20 mM Tris pH 8.0, 200 mM NaCl, 10% glycerol, 1 mM DTT).
The plate was incubated at 37° C. on a shaker at 300 rpm for 10 minutes and then put on ice for 20 minutes. […] The bottom of the filter plate was sealed and 50 μL of MicroScint-20 (PerkinElmer) cocktail was added to each well. ^3H-PDBu trapped in each well was counted using PerkinElmer MicroBeta2 Reader. […] Kd is the binding affinity of each protein preparation to ^3H-PDBu, determined experimentally.

[2] = tested on: Namalwa (Lymphoma) cell line; test: Proliferation of Namalwa; assay type: cell-based; settings: for ratio of (IC50 of K01)/(IC50 of compound), Namalwa: value in parenthesis; for IC50: read-out: IC50 in μM Namalwa (Lymphoma)
Experimental: (§3) The diterpenoid compounds were tested in A549, a non-small cell lung cancer cell line harboring a K-Ras activating mutation. Briefly, A549 cells at a density of 1,000 cells/well were seeded in 96-well plates and incubated at 37° C. for 24 hours. A series of different concentrations of compound stocks (500×) were prepared by 3-fold serial dilution in DMSO. These compounds were further diluted in culture media and then added to cells so that the final DMSO concentration was not exceeding 0.25%. After 96 hours of incubation, 50 μL of CellTiter Glo reagent (Promega) was added to each well and luminescence was measured after 10 minutes using EnVision (PerkinElmer). Luminescence from cells treated with DMSO alone was set as Max and % of inhibition was calculated as follows: Inhibition %=(Max−Sample value)/Max×100. Data was analyzed using XL-fit software (ID Business Solutions Ltd.) and IC50, relative IC50, and % of top inhibition was calculated. Some of the compounds in this disclosure were very potent in blocking proliferation of A549 lung cancer cells at low nM range. In addition, potency of inhibiting A549 proliferation correlated well with its binding affinity to PKCs for this series of compounds. In other words, higher affinity binders had stronger inhibitory effects on A549 proliferation. This further support the notion that activation, rather than inhibition, of certain PKC isoforms is required to block proliferation of cancer cells, some of which may harbor K-Ras mutations. This is in sharp contrast to previous literature and common belief that inhibition of PKC is necessary to block cancer cell growth (Kang, 2014, New Journal of Science, 2014:1-36). Data presented here is in agreement with recent findings that many loss-of-function but not gain-of-function mutations of PKC isoforms have been identified in many human cancers (Antal et al., 2015, Cell, 160:489-502).
(§4) The compounds in this disclosure were tested for their potency in blocking proliferation of a few other cancer cells lines, including K-Ras mutant pancreatic cell lines Panc2.13 and KP-4, leukemia cell line HL-60, and lymphoma cell lines Namalwa and Mino. Similar procedures as in Example 67 were followed. Initial cell numbers seeded in 96-well plates were different for different cell lines: 3000 cells/well for Panc2.13; 800-1000 cells/well for KP-4; 5000 cells/well for HL-60; 5000-10000 cells/well for Namalwa and Mino. A ratio ratio of (IC50 of K01)/(IC50 of compound) (data in parenthesis in Table 5) was used to normalize the compound potency from different assay batches to a common comparator […].

[3] = tested on: A549 non-small cell lung cancer cell line; test: Proliferation of A549 (CellTiter Glo); assay type: cell-based; settings: Homo sapiens, A549, 96 h, read-out: IC50 μM (A549 Cell Line)
Experimental: as §3

[4] = tested on: HL-60 (Leukemia) cell line; test: Proliferation of HL-60; assay type: cell-based; settings: for ratio of (IC50 of K01)/(IC50 of compound), HL-60: value in parenthesis; for IC50: Homo sapiens, HL-60, read-out: IC50 in μM HL-60 (Leukemia)
Experimental: as §3, §4

[5] = tested on: Mino (Lymphoma) cell line; test: Proliferation of Mino; assay type: cell-based; settings: for IC50: Homo sapiens, MINO, read-out: IC50 in μM Mino (Lymphoma); for ratio of (IC50 of K01)/(IC50 of compound), Mino: value in parenthesis
Experimental: as §3, §4

[6] = tested on: KP-4 (Pancreatic) cell line; test: Proliferation of KP-4; assay type: cell-based; settings: Homo sapiens, KP-4, read-out: IC50 in μM KP-4 (Pancreatic)
Experimental: as §3, §4

[7] = target: T2, C1b domain of human PKCδ (Homo sapiens, UniProt Q05655); test: Competitive 3H-PDBu binding to C1b domain of PKCδ; settings: Ki PKCδ, 3H-PDBu competition
T2 construct: Genes encoding C1b domains of human PKCα, δ, ε, θ, and PKD1 (PKCμ) were synthesized; made in house; host or cells: E. coli BL21(DE3)
Experimental: as §1, §2
(§5) The plate was incubated at 37° C. on a shaker at 300 rpm for 10 minutes and then put on ice for 20 minutes. […] The bottom of the filter plate was sealed and 50 μL of MicroScint-20 (PerkinElmer) cocktail was added to each well. ^3H-PDBu trapped in each well was counted using PerkinElmer MicroBeta2 Reader. Data were analyzed using GraphPad Prism5 with the model “log(inhibitor) vs. response-variable slope” to fit the IC50, and then IC50 was transformed to Ki using Cheng-Prusoff equation: Ki=IC50/(1+added radio ligand/Kd). Kd is the binding affinity of each protein preparation to ^3H-PDBu, determined experimentally.

[8] = target: T3, C1b domain of human PKD1 (PKCμ) (Homo sapiens, UniProt Q15139); test: biochemical; assay type: binding
T3 construct: Genes encoding C1b domains of human PKCα, δ, ε, θ, and PKD1 (PKCμ) were synthesized; made in house; host or cells: E. coli BL21(DE3)
T3 sequence (Q15139 270-320 limits assumed): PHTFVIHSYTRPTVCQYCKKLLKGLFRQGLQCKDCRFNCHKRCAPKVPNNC
Experimental: as §1, §2, §5

[9] = tested on: Panc2.13 (Pancreatic) cell line; test: Proliferation of Panc2.13; assay type: cell-based
Experimental: as §3, §4

[10] = target: T4, C1b domain of human PKCε (Homo sapiens, UniProt Q02156); test: Competitive 3H-PDBu binding to C1b domain of PKCε
T4 construct: Genes encoding C1b domains of human PKCα, δ, ε, θ, and PKD1 (PKCμ) were synthesized; made in house; host or cells: E. coli BL21(DE3)
Experimental: as §1, §2, §5

[11] = target: T5, C1b domain of human PKCθ (Homo sapiens, UniProt Q04759); test: Competitive 3H-PDBu binding to C1b domain of PKCθ
T5 construct: Genes encoding C1b domains of human PKCα, δ, ε, θ, and PKD1 (PKCμ) were synthesized; made in house; host or cells: E. coli BL21(DE3)
T5 sequence (Q04759 231-281 limits assumed): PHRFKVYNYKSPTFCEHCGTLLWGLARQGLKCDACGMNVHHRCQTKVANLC
Experimental: as §1, §2, §5

T4 sequence (Q02156 242-292 limits assumed): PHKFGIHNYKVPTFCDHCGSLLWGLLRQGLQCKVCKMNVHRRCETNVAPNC
T2 sequence (Q05655 230-280 limits assumed): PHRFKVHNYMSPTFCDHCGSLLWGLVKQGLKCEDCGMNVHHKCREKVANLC

SMILES | Ki [1] [nM] | ratio of (IC50 of K01)/(IC50 of compound), Namalwa [2] | IC50 [2] [µM] | IC50 [3] [µM] | ratio of (IC50 of K01)/(IC50 of compound), HL-60 [4] | IC50 [4] [µM] | IC50 [5] [µM] | ratio of (IC50 of K01)/(IC50 of compound), Mino [5] | IC50 [6] [µM] | Ki [7] [nM] | Ki [8] [nM] | ratio of (IC50 of K01)/(IC50 of compound), Panc2.13 ([9]; Panc2.13, value in parenthesis) | IC50 ([9]; read-out: IC50 in μM Panc2.13 (Pancreatic)) [µM] | Ki [10] [nM] | Ki [11] [nM]
CC1=C[C@H]2[C@@]3(O)[C@H](C)C[C@]4(OC(=O)[C@@H](N)Cc5ccc(C(F)(F)F)cc5)[C@H]([C@@H]3C=C(CO)C[C@]2(O)C1=O)C4(C)C [Compound K101-C1342] | 100 to 200 | 1.68 | 0.03 to 0.06 | 0.06 to 0.1 | 6.43 | 0.03 to 0.06 | 0.01 to 0.03 | 6.2 | 0.06 to 0.1 | 5 to 10 | < 5 | 6.79 | 0.1 to 0.2 | – | –
CC1=C[C@H]2[C@@]3(O)[C@H](C)C[C@]4(OC(=O)[C@H](N)C(C)(C)c5ccc(C(F)(F)F)cc5)[C@H]([C@@H]3C=C(CO)C[C@]2(O)C1=O)C4(C)C [Compound K101-C134901] | 200 to 400 | 0.49 | 0.1 to 0.2 | 0.2 to 0.6 | 2.75 | 0.1 to 0.2 | 0.01 to 0.03 | 3.88 | – | 1 to 30 | 5 to 10 | – | – | 1 to 30 | 1 to 30
CC1=C[C@H]2[C@@]3(O)[C@H](C)C[C@]4(OC(=O)[C@@H](N)C(C)(C)c5ccc(C(F)(F)F)cc5)[C@H]([C@@H]3C=C(CO)C[C@]2(O)C1=O)C4(C)C [Compound K101-C134902] | 30 to 60 | 3.5 | 0.01 to 0.03 | 0.03 to 0.06 | 12 | 0.01 to 0.03 | 0.001 to 0.01 | 15.7 | – | < 5 | < 5 | – | – | 1 to 30 | 5 to 10
CC1=C[C@H]2[C@@]3(O)[C@H](C)C[C@]4(OC(=O)[C@H](N)CCCCCCc5ccc(C(F)F)cc5)[C@H]([C@@H]3C=C(CO)C[C@]2(O)C1=O)C4(C)C [Compound K101-C137001] | 800 to 1000 | – | – | 0.1 to 0.2 | – | – | – | – | – | 1 to 30 | 1 to 30 | – | – | 30 to 60 | 30 to 60
CC1=C[C@H]2[C@@]3(O)[C@H](C)C[C@]4(OC(=O)[C@@H](N)CCCCCCc5ccc(C(F)F)cc5)[C@H]([C@@H]3C=C(CO)C[C@]2(O)C1=O)C4(C)C [Compound K101-C137002] | 200 to 400 | – | – | 0.1 to 0.2 | – | – | – | – | – | 1 to 30 | 5 to 10 | – | – | 30 to 60 | 1 to 30
